Data taken from patent publication EP0008186A1, “Cyclic diamides, a process for their preparation and their pharmaceutical compositions” (BEECHAM GROUP PLC, priority 1978, dated 1980).

Columns and labels:
Format in all cases: in vivo
[1] = test system: rat; experiment: Anti-ulcer activity: inhibition of indomethacin induced gastric damage; details: gastric damage score 1-9; 50mg/kg orally 30 minutes prior to 15mg/kg indomethacin subcutaneously; sacrificed 4 hours later; vehicle 4.57 ± 0.69; p <0.01 (Mann Witney)
Method: Anti-ulcer activity was assessed by the inhibition of indomethacin induced gastric damage in the rat according to the method of Eleghe (1974) Israeli J. Med. Sci. 10 1451. Rats were starvedovernight given 15mg/kg indomethacin subcutaneously and sacrificed 4 hours later. Stomachs were reflated with n. saline, cut along the greater curvature pinned out and scored for gastric damage by the following system: • Score 1 - 3 - according to degree of erythema and slight haemorrhage. • Score 4 - 6 - according to degree of mucosal erosion. • Score 7 - 9 - according to depth of gastric damage.
Groups of 7 rats were used for each treatment and the test compound or vehicle were administered 30 minutes prior to giving the indomethacin. Dose of test compound was 50mg/kg orally and control groups receiving vehicle only were set up simultaneously. Mean values for each treatment were obtained using the above scoring system and the Mann Witney test applied for significance of difference between the values obtained with the treatments.

[2] = test system: anaesthetised, perfused rat stomach preparation; experiment: Inhibition of pentagastrin-stimulated gastric acid secretion (Ghosh and Schild preparation); details: i.v.
Method: The compounds were examined for their ability to inhibit pentagastrin-stimulated gastric acid secretion in the anaesthetised, perfused rat stomach preparation (Ghosh and Schild preparation). The compounds were administered intravenously.

[3] = test system: conscious guinea pigs; experiment: Herxheimer test: protection against histamine aerosol induced bronchoconstriction; details: administered by aerosol or by oral administration, mean of several experiments
Method: • 1. The compounds were examined for their ability to inhibit 5-hydroxytryptamine or histamine induced bronchoconstriction in the anaesthetised, artifically respired guinea pig (Konzett-Rossler preparation). The compounds were administered intravenously. The results are shown in Table A. [formula] • 2. Compound 3 was also examined for its ability to protect conscious guinea pigs against bronchoconstriction induced by an histamine aerosol (Herxheimer test). In these experiments the compound was administered by aerosol or by oral administration. The results are the mean of several experiments. Compound 3 was active at 10 mg/kg.

| Compound | Test Mean Score ± S.E. of Mean [1] | inhibited gastric acid secretion at [2] | active at (protection against bronchoconstriction induced by an histamine aerosol) [3] |
| --- | --- | --- | --- |
| CCCCC(C)C(C)(O)CCN1C(=O)CN(C)C(=O)C1CCCCCCC(=O)OC (stereo not shown) [Compound 3] | 0.71 ± 0.42 (p <0.01) | 0.2 mg/kg | 10 mg/kg |
| COC(=O)CCCCCCC1C(=O)N[C@@H](C)C(=O)N1CCC(C)(O)C1CCCCC1 (stereo partly shown) [Compound 9] | – | 0.25 mg/kg | – |
